{
  "source": "patent US12268683B2",
  "about": "“Compounds and methods for synergistic activation of M channels” (THE REGENTS OF THE UNIVERSITY OF CALIFORNIA, priority 2018, dated 2025)",
  "key": {"KCNQ2/KCNQ3-R242A": {"biological_target": "KCNQ2/KCNQ3-R242A (Homo sapiens, UniProt O43525+O43526, R242A)", "assay": "TEVC of KCNQ2/KCNQ3-R242A channels", "assay_type": "cell-based", "source_text": "(§1) As previously described (12), we generated cRNA transcripts encoding human KCNA1, KCNE1, KCNE2, KCNE3, KCNQ1, KCNQ2, KCNQ3, KCNQ4 or KCNQ5 by in vitro transcription using the T7 polymerase mMessage mMachine kit (Thermo Fisher Scientific), after vector linearization, from cDNA sub-cloned into plasmids incorporating Xenopus laevis β-globin 5′ and 3′ UTRs flanking the coding region to enhance translation and cRNA stability. We quantified cRNA by spectrophotometry. We generated mutant KCNQ2 and KCNQ3 cDNAs by site-directed mutagenesis with a QuikChange kit (Stratagene, San Diego, Calif.) and prepared the cRNAs as above. We injected defolliculated stage V and VI Xenopus laevis oocytes (Ecocyte Bioscience, Austin, Tex. and Xenoocyte, Dexter, Mich., US) with KCNE and/or KCNQ cRNAs (5-20 ng). […]\n(§2) We performed TEVC at room temperature using an OC-725C amplifier (Warner Instruments, Hamden, Conn.) and pClamp10 software (Molecular Devices, Sunnyvale, Calif.) 2-5 days after cRNA injection as described in the section above. […] We recorded currents in response to voltage pulses between −120 or −80 mV and +40 mV at 20 mV intervals from a holding potential of −80 mV, to yield current-voltage relationships, current magnitude, and for quantifying activation rate. We analyzed data using Clampfit (Molecular Devices) and Graphpad Prism software (GraphPad, San Diego, Calif., USA); values are stated as mean±SEM. […]"}, "KCNQ1/KCNE2": {"biological_target": "KCNQ1/KCNE2 (Homo sapiens, UniProt P51787)", "assay": "TEVC of KCNQ1/KCNE2 channels", "assay_type": "cell-based", "source_text": "as §1, §2"}, "KCNA1": {"biological_target": "KCNA1 (Homo sapiens, UniProt Q09470)", "sequence (Q09470 whole entry)": "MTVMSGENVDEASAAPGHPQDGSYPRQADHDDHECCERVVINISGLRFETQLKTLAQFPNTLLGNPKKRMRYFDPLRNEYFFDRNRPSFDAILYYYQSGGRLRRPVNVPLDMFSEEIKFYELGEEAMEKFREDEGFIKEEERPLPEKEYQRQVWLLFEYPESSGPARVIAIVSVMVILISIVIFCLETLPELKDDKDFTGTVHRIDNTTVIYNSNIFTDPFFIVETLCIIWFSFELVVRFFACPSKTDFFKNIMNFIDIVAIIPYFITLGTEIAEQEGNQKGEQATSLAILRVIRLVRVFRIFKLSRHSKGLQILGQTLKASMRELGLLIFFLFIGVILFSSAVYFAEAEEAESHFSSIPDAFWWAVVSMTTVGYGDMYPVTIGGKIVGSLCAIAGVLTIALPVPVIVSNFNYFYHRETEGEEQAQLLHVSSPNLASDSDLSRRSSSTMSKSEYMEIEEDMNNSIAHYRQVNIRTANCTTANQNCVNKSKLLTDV", "assay": "TEVC of KCNA1 expressed in Xenopus oocytes", "assay_type": "cell-based", "source_text": "cRNA transcripts encoding human KCNA1, KCNQ1, KCNQ2, KCNQ3, KCNQ4, or KCNQ5 were generated by in vitro transcription using the T7 polymerase message machine kit (Thermo Fisher Scientific), after vector linearization, from cDNA sub-cloned into plasmids incorporating X. laevis β-globin 5′ and 3′ UTRs flanking the coding region to enhance translation and cRNA stability. cRNA was quantified by spectrophotometry. Mutant cDNAs were generated by site-directed mutagenesis using a QuikChange kit according to manufacturer's protocol (Stratagene, San Diego, Calif.) and corresponding cRNAs prepared as above. Defolliculated stage V and VI X. laevis oocytes (Ecocyte Bioscience, Austin, Tex.) were injected with Kv channel a subunit cRNAs (10 ng total per oocyte). […]\nTEVC recording was performed at room temperature with an OC-725C amplifier (Warner Instruments, Hamden, Conn.) and pClamp10.2 software (Molecular Devices, Sunnyvale, Calif.) 3-5 days after cRNA injection as described in the section above. […] Currents were recorded in response to pulses between −80 and +40 mV at 20 mV intervals, or a single pulse to +40 mV, from a holding potential of −80 mV, to yield current-voltage relationships, current magnitude, and for quantifying activation rate. […]"}, "KCNQ3*": {"biological_target": "KCNQ3* (Homo sapiens, UniProt O43525, A315T)", "assay": "[3H]GABA competition binding to oocytes expressing KCNQ3*", "conditions": "100 μM, 10 μM 3H-GABA", "method": "(§3) Each group of oocytes was placed in a round-bottomed, 15-ml falcon tube, washed with ND96, and then resuspended in ND96 containing 10 μM γ-[2,3-^3H(N)]-aminobutyric acid (^3H-GABA) (Perkin Elmer, Waltham, Mass.) at 25-40 Ci/mMol specific activity either alone, or with 100 μM 2FPG or 100 μM 3FMSG, for a 30 minute incubation at room temperature. Oocytes were then washed four times in 16° C. ND96, transferred to individual wells in a 96 well plate and lysed in 0.2% SDS in ND96. Each oocyte lysate was transferred to a scintillation vial containing 5 ml Cytoscint scintillation cocktail fluid (MP Biomedicals, Santa Ana, Calif.). Vials were capped, shaken, and then allowed to sit at room temperature for at least 30 min before scintillation counting in a Beckmann Coulter LS6500 liquid scintillation counter."}, "KCNQ2": {"biological_target": "KCNQ2 (Homo sapiens, UniProt O43526)", "assay": "[3H]GABA competition binding to oocytes expressing KCNQ2", "conditions": "100 μM, 10 μM 3H-GABA", "method": "as §3"}},
  "data": [
    {"smiles": "CCCCCCCCC/C=C/C=O", "note": "[(E)-2-dodecenal]", "values": [
      {"measurement": "response of KCNQ2/KCNQ3-R242A (in words)", "setting": "KCNQ2/KCNQ3-R242A", "result": "almost as much as wild-type KCNQ2/3"},
      {"measurement": "effect on KCNQ1/KCNE2 (in words)", "setting": "KCNQ1/KCNE2", "result": "minimal effects"}
    ]},
    {"smiles": "CC(=O)c1c(O)c(C)c(O)c(Cc2c(O)c3c(c(C(=O)/C=C/c4ccccc4)c2O)OC(C)(C)C=C3)c1O", "note": "[MTX, mallotoxin]", "values": [
      {"measurement": "effect on KCNA1 (in words)", "setting": "KCNA1", "result": "no effect"}
    ]},
    {"smiles": "CS(=O)(=O)N(CC(=O)O)c1cccc(F)c1", "note": "[3FMSG]", "values": [
      {"measurement": "competition with [3H]GABA binding to KCNQ3*", "setting": "KCNQ3*", "result": "able to compete out GABA binding"},
      {"measurement": "competition with [3H]GABA binding to KCNQ2", "setting": "KCNQ2", "result": "able to compete out GABA binding"}
    ]}
  ]
}
